The structures appear in SMILES notation.

The subject of series [1] is endogenic testosterone production. The conditions noted are these: cited from earlier work; for inhibition of endogenic testosterone production: Oettel 1993.
The test system of series [2] is cholesterol, lipoprotein and lipase levels. The settings on record: testosterone esters; cited from earlier work.
Series [3] in a line: Clinical study in hypogonadal men: serum hormone levels.
Series [4] has as its system hypogonadal men. The series is described as follows: Clinical study in 23 hypogonadal men: clinical findings (efficacy and side effects).
The conditions of series [5]: cited from earlier work.
Series [6] can be described thus: Pharmacokinetic behaviour of DHT (patch) in combination with estriol gel, transdermal, 18 healthy young male test persons. The settings on record: human, in vivo, topical or ocular. On the procedure:
Pharmacokinetic Behaviour of Dihydrotestosterone (DHT) in Combination with Estriol Gel
In a randomized study, the pharmacokinetic behaviour of DHT and estriol after transdermal application was examined in 18 healthy young male test persons.
The DHT patch contains 150 mg of the active ingredient and was left on the test persons' skin for 24 hours. This galenic form releases 6 mg of DHT per day.
The estriol gel contains 5 mg of active ingredient in 0.5 g of gel. This gel formulation was applied one time to 150 cm^2 of skin (forearm).
For analysis, 12 blood samples were taken from each test person after the application over a period of 48 hours.

The conditions of series [7]: 5α-dihydrotestosterone vs testosterone; cited from earlier work.
Series [8] in a line: Pharmacokinetic behaviour of mesterolone in combination with estradiol valerate, single oral application, 24 healthy young male test persons. The settings on record: human, in vivo. The procedure: Pharmacokinetic Behaviour of Mesterolone in Combination with Estradiol Valerate (EV)
In a randomized study, the kinetic behaviour of mesterolone (25 mg tablet) in combination with EV (1 mg lozenge) after a single oral application was examined in 24 healthy young male test persons.
Each test person was administered mesterolone and EV after a monitored fasting period of 12 hours. After the application, 18 blood samples were taken from each test person over a period of 60 hours.

Where [9] appears, read: mesterolone 25 mg tablet + EV 1 mg lozenge, single oral.

As to `C[C@]12CC[C@@H]3c4ccc(O)cc4CC[C@H]3[C@@H]1CC[C@@H]2O` [estradiol, 17β-estradiol], the “inhibition of endogenic testosterone production” value in series [1] is “not been observed”.
In the case of `CCCCCCC(=O)O[C@H]1CC[C@H]2[C@@H]3CCC4=CC(=O)CC[C@]4(C)[C@H]3CC[C@]12C` [testosterone enanthate], in series [1] (patients with working gonadal testosterone biosynthesis (Humpel and Oettel 1994)), the “period of reversible inhibition of endogenic testosterone production” value is “about 2 weeks”. Moreover, in series [2], the “effect on HDL cholesterol” value is on record as “can cause a minor suppression”; the “effect on total and LDL cholesterol levels” value is recorded as “only have a minor effect”. In addition, the “LH levels in the serum / LH synthesis” value in series [3] (12 months) was “reduced in the serum of all participants”. The “maximum values compared with testosterone levels in healthy men” value in series [3] (Arm 1, 250 mg i.m.) was “significant increase”. Further, the cumulation result in series [3] (Arm 1, testosterone, subsequent applications) is “no cumulation”. Also, in series [4] (12 months), the gynaecomastia result was “Five out of 12”; the “increase in the size of the prostatic glands / prostatic hyperplasia” value is recorded as “could not be detected”; the pelage increase entry is “All men experienced a pelage increase”; the “prostate-specific antigen (PSA), change” value is given as “slightly up in all patients”. Further, the volume/weight of testicles entry in series [4] (12 months) was “the volume of their testicles got smaller”. Besides, in series [4] (Arm 1), the Collagen depletion result is reported as “not detected”; the “thickening of the skin, increase in water retention, tension and elasticity of the tissue” value was “All participants in the study showed a thickening of the skin, an increase in water retention, and an improvement of the tension and elasticity of the tissue”. For the same compound, the “improvement of the morning erection” value in series [4] (Arm 1, 12 months) is given as “Nine out of 12”. Besides, the “patients free of complaints” value in series [4] (Arm 1, n=12) is on record as “Nine”. Moreover, in series [4] (Arm 1 after 4 months of treatment, Arm 2 12 months), the “increased susceptibility to acne / development of acne” value was “Seven of the 12”. In series [4] (Arm 1 after 4 months, Arm 2 12 months), the “voice pitch / voice change” value is recorded as “voice pitch of all men lowered towards a bass tone”. Further, in series [4] (Arm 1 n=12, Arm 2 n=11, 12 months), the “increase in penis size” value is 11 men/patients. Also, the bone density entry in series [4] (after 6 months of treatment) is “All patients showed an apparent increase in bone density”. Further, in series [4] (hot flashing, exhaustion, weakness of concentration, reduced efficiency, disgruntlement, disturbances of libido and potency), the symptoms of andropause result is reported as “became less frequent”.
In the case of `C[C@]12CC[C@H]3[C@@H](CCC4=CC(=O)CC[C@@]43C)[C@@H]1CC[C@@H]2O` [testosterone], in series [5] (intramuscular injection (Tenover 1992)), the “estradiol levels in the plasma” value is on record as “doubled”. Further, the “increase of estradiol levels in the plasma” value in series [5] (percutaneous application (Kuhn 1986)) is 70%.
For orientation: Cmax means the maximum level reached in the sampled fluid or tissue. `C[C@]12CCC(=O)C[C@@H]1CC[C@@H]1[C@@H]2CC[C@]2(C)[C@@H](O)CC[C@@H]12` [DHT, 5α-dihydrotestosterone]: the Cmax in series [6] (150 mg) is 4.51 ± 1.23 ng/mL. Moreover, the “activity relative to testosterone” value in series [7] is listed as “about twice as active as testosterone”. The “inhibition of endogenic testosterone production” value in series [1] was “not been observed”.
In general, Tmax refers to the time from dosing to the highest level. By half-life is commonly meant the time needed for the level to fall by half in the phase considered. As a reminder, the AUC is the area under the concentration-time curve, a measure of exposure. Take `C[C@H]1CC(=O)C[C@@H]2CC[C@H]3[C@@H]4CC[C@H](O)[C@@]4(C)CC[C@@H]3[C@]21C` [mesterolone]: in series [8] (60 h after single oral mesterolone 25 mg + EV 1 mg), the concentration at 60 h was found to be 0.48 ng/mL. Moreover, in series [8] (setting [9]), the Cmax is 6.9 ng/mL, the Tmax is 8.9 h and the half-life was 13.2 h. Also, the AUC at 60 h in series [8] (mesterolone 25 mg tablet + EV 1 mg lozenge, single oral, 60 h) came out at 177 ng·h/mL. In addition, the “inhibition of endogenic testosterone production” value in series [1] is given as “not been observed”.
In the case of `C[C@]12CC[C@@H]3c4ccc(O)cc4CC[C@H]3[C@@H]1C[C@@H](O)[C@@H]2O` [estriol], in series [6] (5 mg), the Cmax came to 0.00882 ± 0.00254 ng/mL.

The values above are taken from patent US5855905A, “Compound preparation for the treatment of hypogonadal men and men with hypophyseal diseases” (priority 1996, dated 1999).
